Data from ChEMBL document CHEMBL1201862, “PubChem BioAssay data set” (2004).
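Interpolation was linear, between the two tested concentrations surrounding the appropriate level; five concentrations were tested over 48 hours in 96-well plates. GI50 marks 50% less growth.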 Activity calls are given as the source filed them. Rule as the data show it: active = GI50 up to about 1.1 µM and inactive = higher.

Columns and labels:
Test in all cases: NCI tumour cell line growth inhibition, 48 h
[1] = test system: KM12
[2] = test system: LOX IMVI
[3] = test system: IGROV-1
[4] = test system: M14
[5] = test system: U-251
[6] = test system: SNB-19
[7] = test system: SN12C
[8] = test system: CAKI-1
[9] = test system: ACHN
[10] = test system: A549
[11] = test system: NCI-H23
[12] = test system: SNB-75
[13] = test system: HT-29
[14] = test system: Malme-3M
[15] = test system: CCRF-CEM
[16] = test system: A498
[17] = test system: SK-MEL-2
[18] = test system: OVCAR-5

Measured: GI50

CCCCCCCCCC(=O)OCC1OC(n2cc(F)c(=O)[nH]c2=O)C(NC(=O)OCc2ccccc2)C(OC(=O)CCCCCCCCC)C1O (stereo not given)
inactive: [1] 31 µM | [2] 16.6 µM | [3] > 100 µM | [4] 52.2 µM | [5] 15 µM | [6] 33.6 µM | [7] 15.8 µM | [8] > 100 µM | [9] 58.7 µM | [10] 26.1 µM | [11] 25.5 µM | [12] 16.3 µM | [13] 16.9 µM | [14] 24.2 µM | [15] 21.8 µM | [16] 25.1 µM | [17] 31 µM

Cc1cc([N+](=O)[O-])ccc1Sc1c2ccccc2nc2cc(Cl)ccc12
inactive: [1] 18.6 µM | [2] 24.9 µM | [3] 46.2 µM | [4] 40.8 µM | [5] 27.8 µM | [6] 41.3 µM | [7] 30.8 µM | [8] 26.2 µM | [9] 44.9 µM | [10] 46.5 µM | [11] 28.8 µM | [18] 56.2 µM | [12] 30.8 µM | [14] > 100 µM | [15] 28.1 µM | [16] > 100 µM | [17] 22.9 µM

FC(F)(F)c1ccc(C2SCc3nc4ccccc4n32)cc1 (stereo not given)
inactive: [1] 50 µM | [3] 14.2 µM | [5] > 100 µM | [6] > 100 µM | [7] > 100 µM | [8] > 10 µM | [9] 39.2 µM | [10] 41.8 µM | [11] 5.89 µM | [18] 15.5 µM | [12] 60 µM | [13] > 100 µM | [14] > 100 µM | [15] 31.4 µM | [16] 81.8 µM | [17] > 100 µM

CN(C)C(=S)/N=c1\ssc(=S)n1Cc1ccncc1
inactive: [1] 4.79 µM | [2] 19.8 µM | [3] 17.9 µM | [4] 20.6 µM | [5] 14.7 µM | [6] 29.2 µM | [7] > 100 µM | [8] 18.9 µM | [9] 29.8 µM | [10] 33.3 µM | [11] 23.9 µM | [18] 40.8 µM | [12] 13.6 µM | [14] 16.3 µM | [15] 5.81 µM | [16] 36.2 µM | [17] 17.2 µM

CC1(C)C(=O)C(=Cc2ccco2)C1=O
inactive: [1] > 100 µM | [2] > 100 µM | [3] > 100 µM | [4] > 100 µM | [5] > 100 µM | [7] > 100 µM | [8] > 100 µM | [9] > 100 µM | [10] > 100 µM | [11] > 100 µM | [18] > 100 µM | [12] > 100 µM | [13] > 100 µM | [14] > 100 µM | [15] > 100 µM | [16] > 100 µM | [17] > 100 µM

NC1=NN(c2ccccc2)C(=O)C1/C(=N\NC(=O)c1cc2ccccc2cc1O)C(=O)Nc1ccc(Cl)cc1 (stereo not given)
inactive: [1] 27.9 µM | [3] 20 µM | [4] 20.7 µM | [5] 31.5 µM | [6] 37.8 µM | [7] 36.8 µM | [8] 31 µM | [9] 26 µM | [10] 44.5 µM | [11] 24.7 µM | [18] 31.4 µM | [12] 4.72 µM | [13] 42.5 µM | [14] 30.8 µM | [15] 3.73 µM | [16] 24.2 µM | [17] 23.2 µM

O=C(NC1C2CC3CC(C2)CC1C3)/C(Cl)=C1/Sc2ccccc2NC1=O (stereo not given)
inactive: [1] > 62.8 µM | [2] 99.3 µM | [3] > 100 µM | [4] > 100 µM | [5] > 100 µM | [6] > 100 µM | [7] > 100 µM | [8] > 100 µM | [9] > 95.9 µM | [10] > 100 µM | [11] > 100 µM | [18] > 100 µM | [12] 97.9 µM | [13] > 100 µM | [14] > 100 µM | [15] 29.5 µM | [16] > 100 µM

COc1ccc(N2C(=O)C3CC(c4ccc(Br)cc4)c4c([nH]c5ccccc45)C3C2=O)cc1 (stereo not given)
inactive: [1] 13.1 µM | [2] 4.69 µM | [3] 10.6 µM | [4] 19.5 µM | [6] 3.43 µM | [7] 3.93 µM | [8] 15.1 µM | [9] 4.51 µM | [10] 2.71 µM | [11] 11.4 µM | [18] 22.6 µM | [12] 9.12 µM | [13] 13.2 µM | [14] 14.8 µM | [15] 8.59 µM | [16] 9.59 µM | [17] 60.7 µM
